Data taken from PubChem BioAssay (NCI).
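Following 48 hours of exposure in 96-well plates, responses at five concentrations were used to interpolate endpoints linearly. TGI: total growth inhibition.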

Experiments:
Test in all cases: NCI-60 cell line screen, 48 h
786-0 renal = test system: 786-0 renal
A498 renal = test system: A498 renal
A549 NSCLC = test system: A549 NSCLC
ACHN renal = test system: ACHN renal
CAKI-1 renal = test system: CAKI-1 renal
COLO 205 colon = test system: COLO 205 colon
DU-145 prostate = test system: DU-145 prostate
EKVX NSCLC = test system: EKVX NSCLC
HCC-2998 colon = test system: HCC-2998 colon
HCT-116 colon = test system: HCT-116 colon
HCT-15 colon = test system: HCT-15 colon
HOP-62 NSCLC = test system: HOP-62 NSCLC
HOP-92 NSCLC = test system: HOP-92 NSCLC
HS 578T breast = test system: HS 578T breast
HT29 colon = test system: HT29 colon
IGROV1 ovarian = test system: IGROV1 ovarian
K-562 leukemia = test system: K-562 leukemia
KM12 colon = test system: KM12 colon
LOX IMVI melanoma = test system: LOX IMVI melanoma
M14 melanoma = test system: M14 melanoma
MALME-3M melanoma = test system: MALME-3M melanoma
MCF7 breast = test system: MCF7 breast
MDA-MB-435 = test system: MDA-MB-435
MDA-N = test system: MDA-N
NCI-H23 lung = test system: NCI-H23 lung
NCI-H460 lung = test system: NCI-H460 lung
NCI-H522 lung = test system: NCI-H522 lung
NCI/ADR-RES ovarian = test system: NCI/ADR-RES ovarian
OVCAR-3 ovarian = test system: OVCAR-3 ovarian
OVCAR-4 ovarian = test system: OVCAR-4 ovarian
OVCAR-5 ovarian = test system: OVCAR-5 ovarian
OVCAR-8 ovarian = test system: OVCAR-8 ovarian
PC-3 prostate = test system: PC-3 prostate
RXF 393 renal = test system: RXF 393 renal
SF-268 CNS = test system: SF-268 CNS
SF-295 CNS = test system: SF-295 CNS
SF-539 CNS = test system: SF-539 CNS
SK-MEL-2 melanoma = test system: SK-MEL-2 melanoma
SK-MEL-28 melanoma = test system: SK-MEL-28 melanoma
SK-MEL-5 melanoma = test system: SK-MEL-5 melanoma
SK-OV-3 ovarian = test system: SK-OV-3 ovarian
SN12C renal = test system: SN12C renal
SNB-19 CNS = test system: SNB-19 CNS
SNB-75 CNS = test system: SNB-75 CNS
SR leukemia = test system: SR leukemia
SW-620 colon = test system: SW-620 colon
T-47D breast = test system: T-47D breast
TK-10 renal = test system: TK-10 renal
U251 CNS = test system: U251 CNS
UACC-257 melanoma = test system: UACC-257 melanoma
UACC-62 melanoma = test system: UACC-62 melanoma
UO-31 renal = test system: UO-31 renal
CCRF-CEM leukemia = test system: CCRF-CEM leukemia
HL-60(TB) leukemia = test system: HL-60(TB) leukemia
MDA-MB-231 breast = test system: MDA-MB-231 breast
MOLT-4 leukemia = test system: MOLT-4 leukemia
NCI-H226 lung = test system: NCI-H226 lung
RPMI-8226 leukemia = test system: RPMI-8226 leukemia

N#CCCC1(CCC#N)CCCCCCC(CCC#N)(CCC#N)C(=O)C1=O
TGI (786-0 renal): > 100 µM | TGI (A498 renal): > 100 µM | TGI (A549 NSCLC): > 100 µM | TGI (ACHN renal): > 100 µM | TGI (CAKI-1 renal): > 100 µM | TGI (COLO 205 colon): > 100 µM | TGI (DU-145 prostate): > 100 µM | TGI (EKVX NSCLC): > 100 µM | TGI (HCC-2998 colon): > 100 µM | TGI (HCT-116 colon): > 100 µM | TGI (HCT-15 colon): > 100 µM | TGI (HOP-62 NSCLC): > 100 µM | TGI (HOP-92 NSCLC): > 100 µM | TGI (HS 578T breast): > 100 µM | TGI (HT29 colon): > 100 µM | TGI (IGROV1 ovarian): > 100 µM | TGI (K-562 leukemia): > 100 µM | TGI (KM12 colon): > 100 µM | TGI (LOX IMVI melanoma): > 100 µM | TGI (M14 melanoma): > 100 µM | TGI (MALME-3M melanoma): > 100 µM | TGI (MCF7 breast): > 100 µM | TGI (MDA-MB-435): > 100 µM | TGI (MDA-N): > 100 µM | TGI (NCI-H23 lung): > 100 µM | TGI (NCI-H460 lung): > 100 µM | TGI (NCI-H522 lung): > 100 µM | TGI (NCI/ADR-RES ovarian): > 100 µM | TGI (OVCAR-3 ovarian): > 100 µM | TGI (OVCAR-4 ovarian): > 100 µM | TGI (OVCAR-5 ovarian): > 100 µM | TGI (OVCAR-8 ovarian): > 100 µM | TGI (PC-3 prostate): > 100 µM | TGI (RXF 393 renal): > 100 µM | TGI (SF-268 CNS): > 100 µM | TGI (SF-295 CNS): > 100 µM | TGI (SF-539 CNS): > 100 µM | TGI (SK-MEL-2 melanoma): > 100 µM | TGI (SK-MEL-28 melanoma): > 100 µM | TGI (SK-MEL-5 melanoma): > 100 µM | TGI (SK-OV-3 ovarian): > 100 µM | TGI (SN12C renal): > 100 µM | TGI (SNB-19 CNS): > 100 µM | TGI (SNB-75 CNS): > 100 µM | TGI (SR leukemia): > 100 µM | TGI (SW-620 colon): > 100 µM | TGI (T-47D breast): > 100 µM | TGI (TK-10 renal): > 100 µM | TGI (U251 CNS): > 100 µM | TGI (UACC-257 melanoma): > 100 µM | TGI (UACC-62 melanoma): > 100 µM | TGI (UO-31 renal): 20.8 µM

Oc1ccc[n+](Cc2ccccc2)c1
TGI (786-0 renal): > 100 µM | TGI (A498 renal): > 100 µM | TGI (A549 NSCLC): > 100 µM | TGI (ACHN renal): > 100 µM | TGI (CAKI-1 renal): > 100 µM | TGI (CCRF-CEM leukemia): > 100 µM | TGI (COLO 205 colon): > 100 µM | TGI (DU-145 prostate): > 100 µM | TGI (HCC-2998 colon): > 100 µM | TGI (HCT-116 colon): > 100 µM | TGI (HCT-15 colon): > 100 µM | TGI (HL-60(TB) leukemia): > 100 µM | TGI (HOP-62 NSCLC): > 100 µM | TGI (HS 578T breast): > 100 µM | TGI (HT29 colon): > 100 µM | TGI (K-562 leukemia): > 100 µM | TGI (KM12 colon): > 100 µM | TGI (LOX IMVI melanoma): > 100 µM | TGI (M14 melanoma): > 100 µM | TGI (MALME-3M melanoma): > 100 µM | TGI (MCF7 breast): > 100 µM | TGI (MDA-MB-231 breast): > 100 µM | TGI (MDA-MB-435): > 100 µM | TGI (MDA-N): > 100 µM | TGI (MOLT-4 leukemia): > 100 µM | TGI (NCI-H226 lung): > 100 µM | TGI (NCI-H23 lung): > 100 µM | TGI (NCI-H460 lung): > 100 µM | TGI (NCI-H522 lung): > 100 µM | TGI (NCI/ADR-RES ovarian): > 100 µM | TGI (OVCAR-3 ovarian): > 100 µM | TGI (OVCAR-5 ovarian): > 100 µM | TGI (OVCAR-8 ovarian): > 100 µM | TGI (PC-3 prostate): > 100 µM | TGI (RPMI-8226 leukemia): > 100 µM | TGI (RXF 393 renal): > 100 µM | TGI (SF-268 CNS): > 100 µM | TGI (SF-295 CNS): > 100 µM | TGI (SF-539 CNS): > 100 µM | TGI (SK-MEL-2 melanoma): > 100 µM | TGI (SK-MEL-28 melanoma): > 100 µM | TGI (SK-MEL-5 melanoma): > 100 µM | TGI (SK-OV-3 ovarian): > 100 µM | TGI (SN12C renal): > 100 µM | TGI (SNB-19 CNS): > 100 µM | TGI (SNB-75 CNS): > 100 µM | TGI (T-47D breast): > 100 µM | TGI (TK-10 renal): > 100 µM | TGI (U251 CNS): > 100 µM | TGI (UACC-257 melanoma): > 100 µM | TGI (UACC-62 melanoma): > 100 µM | TGI (UO-31 renal): > 100 µM
